Earlier results, collected in patent US20180311274A1, “IN SITU NEUTRALIZATION COMPOSITION” (Kramer Laboratories, Inc., priority 2017, published 2018).

solubility in water: practically insoluble
SMILES: Cc1cccc(N(C)C(=S)Oc2ccc3ccccc3c2)c1 [Tolnaftate]
